Source: publication PMC4811591, “Role of the Substrate Specificity-Defining Residues of Human SIRT5 in Modulating the Structural Stability and Inhibitory Features of the Enzyme” (PLoS ONE, 2016)
Residue numbers refer to the chain shown, from its start.

Experiments:
SIRT5 wild type [1] = target: T1, SIRT5 wild type (Homo sapiens, UniProt Q9NXA8); test: SIRT5 wild type desuccinylation reaction, trypsin coupled fluorescence assay with Ac-SucLys-AMC; type: biochemical; settings: for IC50: SIRT5 desuccinylation
T1 construct: SIRT1 (193–747) and SIRT5 (51–301) were cloned into the pLIC-His expression vector; His tag (pLIC-His vector); made in house; host or cells: E. coli BL21(DE3) Star
T1 sequence (Q9NXA8 51-301): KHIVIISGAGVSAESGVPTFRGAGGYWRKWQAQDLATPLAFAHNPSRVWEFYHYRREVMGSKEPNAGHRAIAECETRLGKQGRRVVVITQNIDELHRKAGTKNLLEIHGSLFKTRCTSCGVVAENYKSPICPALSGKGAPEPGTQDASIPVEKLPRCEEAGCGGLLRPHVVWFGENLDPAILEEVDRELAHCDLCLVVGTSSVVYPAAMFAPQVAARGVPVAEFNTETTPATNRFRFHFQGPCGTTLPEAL
Method: (§1) The sirtuin catalyzed deacetylase and desuccinylase reactions were measured via the trypsin coupled assay system as described by Madsen et al. […] Since trypsin was used as a coupling enzyme, its concentration was optimized to ensure the emergence of minimal or negligible lag-phase prior to the onset of the steady state phase. […] The steady state rates of the enzyme catalyzed reactions were derived from the time dependent changes in the fluorescence signal, and the data were analyzed by the ternary complex kinetic mechanism (Eq 4) via Grafit 4 software.
(§2) The steady-state kinetic data were fitted globally by the competitive, mixed, and noncompetitive inhibition models using the DYNAFIT software based on the rapid-equilibrium approximation. All the parameters were allowed to float except for the enzyme concentration. The software utilizes several model-discrimination criteria, including the second order Akaike Information Criterion (AIC), so that the best model out of the three different candidates could be identified.
(§3) Other reaction conditions were the same as described above. The data were fitted by Eq 5 by Grafit 4.0.

SIRT5 Y102A [2] = target: T2, SIRT5 Y102A (Homo sapiens, UniProt Q9NXA8, Y102A); test: SIRT5 Y102A desuccinylation reaction, trypsin coupled assay with Ac-SucLys-AMC; type: biochemical
T2 construct: SIRT1 (193–747) and SIRT5 (51–301) were cloned into the pLIC-His expression vector; His tag (pLIC-His vector); made in house; host or cells: E. coli BL21(DE3) Star
T2 sequence (Q9NXA8 51-301 Y102A): T1 sequence (Q9NXA8 51-301) with Y52A
Method: as §1, §2, §3

SIRT1 [3] = target: T3, SIRT1 (Homo sapiens, UniProt Q96EB6); test: SIRT1 desuccinylation reaction, trypsin coupled assay with Ac-SucLys-AMC; type: biochemical; settings: succinyl substrate
T3 construct: SIRT1 (193–747) and SIRT5 (51–301) were cloned into the pLIC-His expression vector; His tag (pLIC-His vector); made in house; host or cells: E. coli BL21(DE3) Star
T3 sequence (Q96EB6 193-747): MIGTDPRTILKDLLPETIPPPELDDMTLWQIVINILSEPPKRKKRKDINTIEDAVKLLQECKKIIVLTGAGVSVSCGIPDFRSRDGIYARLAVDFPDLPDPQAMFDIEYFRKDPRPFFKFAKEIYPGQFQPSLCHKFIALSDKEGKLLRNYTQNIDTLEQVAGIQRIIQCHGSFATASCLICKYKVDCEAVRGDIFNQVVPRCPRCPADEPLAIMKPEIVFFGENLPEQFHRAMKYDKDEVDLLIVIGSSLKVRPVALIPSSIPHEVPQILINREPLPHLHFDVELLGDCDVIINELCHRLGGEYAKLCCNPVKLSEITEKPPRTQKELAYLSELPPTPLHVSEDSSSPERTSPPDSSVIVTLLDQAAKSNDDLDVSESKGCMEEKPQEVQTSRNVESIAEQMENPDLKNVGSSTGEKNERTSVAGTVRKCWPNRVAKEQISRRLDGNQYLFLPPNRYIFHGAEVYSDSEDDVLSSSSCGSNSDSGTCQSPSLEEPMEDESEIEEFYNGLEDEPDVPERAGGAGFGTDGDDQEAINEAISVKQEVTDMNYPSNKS
Method: (§4) The sirtuin catalyzed deacetylase and desuccinylase reactions were measured via the trypsin coupled assay system as described by Madsen et al. The enzyme reactions were carried out at 25°C in 50 mM Tris-HCl assay buffer, pH 8.0, containing 137 mM NaCl, 2.7 mM KCl, 1 mM MgCl2, and 1 mg/mL bovine serum albumin. Since trypsin was used as a coupling enzyme, its concentration was optimized to ensure the emergence of minimal or negligible lag-phase prior to the onset of the steady state phase. The bi-substrate kinetic experiments were performed by varying the concentrations of NAD^+ (from 100 to 500 μM) and Ac-SucLys-AMC or Fluor-de-lys® substrates (from 100 μM to 1200 μM) using 0.8 μM trypsin as the coupling enzyme. The steady state rates of the enzyme catalyzed reactions were derived from the time dependent changes in the fluorescence signal, and the data were analyzed by the ternary complex kinetic mechanism (Eq 4) via Grafit 4 software.

SIRT5 wild type [4] = target: T1, SIRT5 wild type; test: SIRT5 wild type deacetylation reaction, trypsin coupled fluorescence assay with Fluor-de-lys; type: biochemical; settings: 50 μM EX527; substrate not stated in the sentence (method: 100 μM Fluor-de-lys, 500 μM NAD^+)
Method: as §4
(§5) The steady-state kinetic data were fitted globally by the competitive, mixed, and noncompetitive inhibition models using the DYNAFIT software based on the rapid-equilibrium approximation. All the parameters were allowed to float except for the enzyme concentration. […]

SIRT5 Y102A [5] = target: T2, SIRT5 Y102A; test: SIRT5 Y102A deacetylation reaction, trypsin coupled assay with Fluor-de-lys; type: biochemical
Method: as §1, §2, §3

SIRT5 R105I [6] = target: T4, SIRT5 R105I (Homo sapiens, UniProt Q9NXA8, R105I); test: SIRT5 R105I deacetylation reaction, trypsin coupled assay with Fluor-de-lys; type: biochemical
T4 construct: SIRT1 (193–747) and SIRT5 (51–301) were cloned into the pLIC-His expression vector; His tag (pLIC-His vector); made in house; host or cells: E. coli BL21(DE3) Star
T4 sequence (Q9NXA8 51-301 R105I): T1 sequence (Q9NXA8 51-301) with R55I
Method: as §1, §2, §3

SIRT5 R105I [7] = target: T4, SIRT5 R105I; test: SIRT5 R105I desuccinylation reaction, trypsin coupled assay with Ac-SucLys-AMC; type: biochemical
Method: as §4, §5

SIRT5 Y102A/R105I [8] = target: T5, SIRT5 Y102A/R105I (Homo sapiens, UniProt Q9NXA8, R105I/Y102A); test: SIRT5 Y102A/R105I deacetylation reaction, trypsin coupled assay with Fluor-de-lys; type: biochemical
T5 construct: SIRT1 (193–747) and SIRT5 (51–301) were cloned into the pLIC-His expression vector; His tag (pLIC-His vector); made in house; host or cells: E. coli BL21(DE3) Star
T5 sequence (Q9NXA8 51-301 Y102A/R105I): T1 sequence (Q9NXA8 51-301) with Y52A, R55I
Method: as §1, §2, §3

SIRT5 Y102A/R105I [9] = target: T5, SIRT5 Y102A/R105I; test: Isothermal titration calorimetry, binding of EX527 to SIRT5 Y102A/R105I; settings: ITC
Method: (§6) Isothermal titration calorimetric experiment was performed in duplicates on a VP-ITC device (Microcal Inc., Northampton, MA). Prior to the titration experiment, both enzyme and inhibitor were thoroughly degassed under vacuum. The sample cell was filled with 1.8 mL (effective volume = 1.4 mL) of 20 μM Y102A/R105I mutant SIRT5 and 0 or 10 mM NAD^+ in 50 mM HEPES buffer, pH 7.5, containing 100 mM NaCl, 10% glycerol and 1 mM TCEP. […] The data were analyzed by the ITC data analysis module of Origin Software using the single-site binding model as described by Wiseman et al. All the parameters were allowed to vary during the curve-fitting. […] The binding free energy (ΔG°) and the entropic (ΔS°) changes were calculated by Eqs 6 and 7, respectively ΔG°=−RTlnKa (6) ΔS°=ΔH°−ΔG°/T (7)
The latter value translates to the ΔG° of binding as being equal to −7.3 ± 0.1 kcal/mol. Given the ΔH° and ΔG° values, the TΔS° was calculated to be 2.03 kcal/mol.

wild type SIRT5 = target: T6, wild type SIRT5 (Homo sapiens, UniProt Q9NXA8); test: Isothermal titration calorimetry, binding of EX527 to wild type SIRT5; settings: ITC, either in the absence or the presence of NAD^+ (10 mM)
T6 construct: SIRT1 (193–747) and SIRT5 (51–301) were cloned into the pLIC-His expression vector; His tag (pLIC-His vector); made in house; host or cells: E. coli BL21(DE3) Star
T6 sequence (Q9NXA8 51-301): T1 sequence (Q9NXA8 51-301)

SIRT5 = test system: SIRT5; design: method as in PMID 22583019; settings: same succinylated substrate, fixed substrate concentration; read-out: Km,NAD (apparent); cited from earlier work
SIRT1 [10] = target: T3, SIRT1; test: SIRT1 deacetylation reaction, trypsin coupled assay with Fluor-de-lys; type: biochemical; settings: for IC50: SIRT1 deacetylation
Method: as §1, §2, §3

SIRT5-substrate complex = target: T7, SIRT5-substrate complex (Homo sapiens, UniProt Q9NXA8); test: Isothermal titration calorimetry, binding of nicotinamide to SIRT5-substrate complex; settings: ITC, 20 μM SIRT5 in the presence of 1 mM Ac-Suclys-AMC
T7 construct: SIRT1 (193–747) and SIRT5 (51–301) were cloned into the pLIC-His expression vector; His tag (pLIC-His vector); made in house; host or cells: E. coli BL21(DE3) Star
T7 sequence (Q9NXA8 51-301): T1 sequence (Q9NXA8 51-301)
Method: as §6, with “vacuum.” for “vacuum. The sample cell was filled with 1.8 mL (effective volume = 1.4 mL) of 20 μM Y102A/R105I mutant SIRT5 and 0 or 10 mM NAD^+ in 50 mM HEPES buffer, pH 7.5, containing 100 mM NaCl, 10% glycerol and 1 mM TCEP.”
(TIF) Click here for additional data file.

[11] = desuccinylation, succinyl substrate
[12] = deacetylation, acetylated substrate, at 800 μM nicotinamide
[13] = deacetylation, against NAD^+, 500 μM Fluo-de-lys, NAD^+ 200 to 1300 μM
[14] = deacetylation, against NAD^+, 100 μM Fluo-de-lys, NAD^+ 40 to 300 μM

SMILES: CC(=O)N[C@@H](CCCCNC(=O)CCC(=O)O)C(=O)Nc1ccc2c(C)cc(=O)oc2c1 [Ac-SucLys-AMC]
- kcat (SIRT5 wild type [1]; [11]): 383.2 ± 38.3 ×10^−5 s^-1
- Km (SIRT5 wild type [1]; desuccinylation, succinyl substrate, 25°C, pH 8.0, read-out: Km,sub): 290 ± 29 µM
- kcat (SIRT5 Y102A [2]; [11]): 27.4 ± 4.9 ×10^−5 s^-1
- Km (SIRT5 Y102A [2]; desuccinylation, succinyl substrate, read-out: Km,sub): 300 ± 54 µM
- desuccinylase activity (SIRT1 [3]): no detectable desuccinylase activity

SMILES: NC(=O)C1CCCc2c1[nH]c1ccc(Cl)cc21 (centres unmarked) [EX527, 6-chloro-2,3,4,9-tetrahydro-1H-carbazole-1-carboxamide]
- inhibition by EX527 (SIRT5 wild type [4]): not inhibited
- inhibition at 50 µM (SIRT5 Y102A [5]): ~14%
- inhibition by EX527 (SIRT5 Y102A [2]; 50 μM EX527, succinylated substrate): no inhibition
- inhibition at 50 µM (SIRT5 R105I [6]): ~22%
- inhibition at 50 µM (SIRT5 R105I [7]): ~22%
- IC50 (SIRT5 Y102A/R105I [8]): 21.7 ± 1 µM
- binding (SIRT5 Y102A/R105I [9]; in the absence of NAD^+): binds weakly
- ΔH° (SIRT5 Y102A/R105I [9]; presence of 10 mM NAD^+, pH 7.5, 25°C): -5.3 ± 0.1 kcal/mol
- stoichiometry n (SIRT5 Y102A/R105I [9]; presence of 10 mM NAD^+, pH 7.5, 25°C, single site binding model): 1.2
- ΔG° of binding (SIRT5 Y102A/R105I [9]; presence of 10 mM NAD^+, calculated from Ka): -7.3 ± 0.1 kcal/mol
- TΔS° (SIRT5 Y102A/R105I [9]; presence of 10 mM NAD^+, calculated from ΔH° and ΔG°): 2.03 kcal/mol
- binding (heat signals) (wild type SIRT5): only miniscule heat signals

SMILES: NC(=O)c1ccc[n+]([C@@H]2O[C@H](COP(=O)([O-])OP(=O)(O)OC[C@H]3O[C@@H](n4cnc5c(N)ncnc54)[C@H](O)[C@@H]3O)[C@@H](O)[C@H]2O)c1 [NAD, nicotinamide adenine dinucleotide]
- Km (SIRT5): 150 ± 45 µM

SMILES: NC(=O)c1cccnc1 [Nicotinamide]
- Inhibition Mode (SIRT5 wild type [1]; desuccinylation, against NAD^+, 100 μM Ac-SucLys-AMC, NAD^+ 40 to 300 μM): Competitive
- % inhibition (SIRT5 Y102A [5]; [12]): N/A, 36% inhibition at 800μM
- inhibition at 800 µM (SIRT5 Y102A [5]; [12]): ~36%
- Inhibition Mode (SIRT5 Y102A [2]; desuccinylation, against NAD^+, 500 μM Ac-SucLys-AMC, NAD^+ 70 to 800 μM): Competitive
- inhibition at 800 µM (SIRT5 R105I [6]): 40%
- Inhibition Mode (SIRT5 Y102A/R105I [8]; [13]): Mixed
- Ki’ (mixed inhibition) (SIRT5 Y102A/R105I [8]; [13]): 267.2 ± 52.4 µM
- Inhibition Mode (SIRT1 [10]; [14]): Mixed
- Ki’ (mixed inhibition) (SIRT1 [10]; [14]): 340.5 ± 102.4 µM
- Ka (SIRT5-substrate complex): (2.5 ± 0.3) × 10^4 M^-1

SMILES: NC(=O)c1ccncc1 [isonicotinamide]
- IC50 (SIRT5 wild type [1]; in the presence of 50 μM NAD^+): 11.1 ± 2.2 mM
- IC50 (SIRT5 wild type [1]; in the presence of 5 mM NAD^+): 17.1 ± 4 mM
- IC50 (SIRT1 [10]; in the presence of 50 μM NAD^+): 7 ± 2.9 mM
- IC50 (SIRT1 [10]; in the presence of 5 mM NAD^+): 8.9 ± 3.3 mM
